TGI data for 15 compounds are collected here from PubChem BioAssay (NCI).

Molecules are shown by their SMILES.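 Test compounds were applied to cells in 96-well plates for 48 hours at 5 doses. TGI denotes the concentration required for complete inhibition of growth.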 Bounds are passed on as bounds.

What all share (assay): NCI-60 cell line screen, 48 h
The test system of test [1] is RPMI-8226 leukemia.
In test [2] the test system is HOP-62 NSCLC.
Test [3] has as its system ACHN renal.
For test [4], the system named is NCI-H522 lung.
Test [5] deals with MDA-N.
In test [6] the test system is SK-MEL-5 melanoma.
The test system of test [7] is UO-31 renal.
The subject of test [8] is SF-539 CNS.
Test [9] concerns HOP-92 NSCLC.
In test [10] the test system is T-47D breast.
In test [11] the test system is SK-OV-3 ovarian.
For test [12], the system named is HS 578T breast.
The subject of test [13] is SF-295 CNS.
For test [14], the system named is CCRF-CEM leukemia.
For test [15], the system named is IGROV1 ovarian.
Test [16] deals with PC-3 prostate.
Test [17] deals with MDA-MB-231 breast.
For test [18], the system named is CAKI-1 renal.
For test [19], the system named is K-562 leukemia.
Test [20] deals with SR leukemia.

As for `CN(CCNC(=O)c1nn(-c2ccccc2)c2c1Cc1ccccc1-2)CCNC(=O)c1nn(-c2ccccc2)c2c1Cc1ccccc1-2`, the TGI in test [1] was found to be 14.1 µM; in test [2], 3.6 µM; in [3] it was 3.44 µM; in test [4], 3.15 µM; in test [5] it was 3.16 µM; in test [6], 3.38 µM. The TGI in test [7] was 3.22 µM; in test [8], 4.11 µM; in [9] it was 3.01 µM; in test [10] it was more than 22.5 µM; in test [11], 4.31 µM; in test [12], 3.77 µM. For the same compound, the TGI in [13] worked out at 3.34 µM; in test [14] it was 4.68 µM; in [15], 3.31 µM; in [16], 4.81 µM; in test [17], 3.39 µM; in test [18], 7.28 µM. This compound also showed a TGI in test [19] of 6.59 µM.
As for `COc1cc(C2=C(c3cc(OC)c4ccccc4c3OC)C(=O)c3ccccc3C2=O)c(OC)c2ccccc12`, the TGI in test [2], in test [20], in [3], in test [4], in test [5] and in test [6] was more than 100 µM each time. The TGI in test [7], in test [8], in test [9], in test [10], in [11] and in test [12] was more than 100 µM in each case. In addition, the TGI in test [13], in test [14], in test [15], in [16] and in test [18] was more than 100 µM in each case.
Regarding `C[C@]12CC[C@@H]3c4ccc(O)cc4CC[C@H]3[C@@H]1CC[C@@H]2OP(=O)(O)O`, the TGI in test [1], in test [2], in test [3], in test [4], in test [5] and in [6] was more than 100 µM throughout. Also, the TGI in test [7], in test [8], in test [9], in [10], in test [11] and in test [12] was more than 100 µM each time. The TGI in test [13], in test [14], in test [15], in test [16], in test [17] and in [18] was more than 100 µM in each case. The TGI in [19] was more than 100 µM.
Take `CC(Cc1ccccc1)Nc1ncnc2c1ncn2C1OC(CO)CC1O` (stereo unspecified): the TGI in test [1], in test [2], in test [3], in test [4], in test [5] and in test [6] was more than 100 µM in each case. Further, the TGI in test [7] was more than 100 µM; in test [9] it was more than 100 µM; in test [10] it was more than 100 µM; in test [11], 13.7 µM; in [12] it was more than 100 µM; in test [13], 6.21 µM. In addition, the TGI in [14], in test [15], in [16], in test [17], in test [18] and in [19] was more than 100 µM in each case.
Turning to `CN(C)c1ccc(/C=C/C(=O)CC(=O)/C=C/c2ccc(N(C)C)cc2)cc1`, the TGI in test [1] was more than 100 µM; in test [2], more than 100 µM; in [20], 76.7 µM; in [3] it was more than 100 µM; in test [4], more than 100 µM; in test [5], more than 100 µM. For the same compound, the TGI in [6], in [7], in [8], in test [10], in test [11] and in [12] was more than 100 µM in each case. Also, the TGI in [13], in test [14], in [15], in test [16], in test [17] and in test [18] was more than 100 µM each time. The same compound had a TGI in [19] of more than 100 µM.
Regarding `COC(=O)[C@H](Cc1ccccc1)NP(=O)(OCCC#N)OCC1OC(n2cc(C)c(=O)[nH]c2=O)CC1N=[N+]=[N-]` (stereo partly specified), the TGI in test [1], in test [2], in test [3], in [4], in test [5] and in [6] was more than 100 µM in each case. Also, the TGI in test [7], in test [9], in [10], in test [11], in test [12] and in [13] was more than 100 µM each time. Also, the TGI in test [14], in test [15], in [16], in [17], in [18] and in test [19] was more than 100 µM each time.
In the case of `Cc1cc(-c2cccc3ccccc23)c(C#N)c(=S)n1C1OC(CO)C(O)C(O)C1O` (stereo unspecified), the TGI in [2], in test [20], in [3], in test [5], in test [6] and in test [8] was more than 100 µM in each case. The TGI in test [10], in test [11], in test [12], in [13], in test [14] and in test [15] was more than 100 µM throughout. Also, the TGI in test [16], in test [17] and in test [18] was more than 100 µM in each case.
Take `CCc1cccc(C(C)(C)C)c1NC(=S)N/C=C(/C#N)C(N)=O`: the TGI in [1], in [2], in [3], in test [4], in test [5] and in test [6] was more than 100 µM throughout. Moreover, the TGI in test [7] was more than 100 µM; in [8] it was more than 100 µM; in [9], 72 µM; in test [10], more than 100 µM; in test [11] it was more than 100 µM; in test [12] it was more than 100 µM. In addition, the TGI in test [13], in [14], in [15], in test [16], in test [17] and in [18] was more than 100 µM each time. In addition, the TGI in test [19] is more than 100 µM.
As to `CN1CCN(C(=S)N(C(=O)c2ccc(Cl)cc2)c2ccccc2)CC1`, the TGI in [1], in test [20], in [3], in test [4], in test [5] and in test [6] was more than 100 µM each time. For the same compound, the TGI in test [7], in test [9], in test [10], in test [12], in [13] and in test [15] was more than 100 µM throughout. For the same compound, the TGI in test [17] and in test [19] was more than 100 µM in each case.
As to `Fc1ccc(Oc2nc3ccc(C(F)(F)F)cc3nc2-c2ccccc2)cc1`, the TGI was more than 100 µM in test [2]; 70.9 µM in test [20]; more than 100 µM in test [3]; more than 100 µM in test [4]; more than 100 µM in test [5]; more than 100 µM in test [6]. For the same compound, the TGI in test [7] is more than 100 µM; in test [8] it was more than 100 µM; in test [10], more than 100 µM; in [11], more than 100 µM; in test [12] it was 99.5 µM; in test [13], more than 100 µM. In addition, the TGI is more than 10 µM in test [14]; more than 100 µM in test [15]; more than 100 µM in test [16]; more than 100 µM in [17]; 70.8 µM in [18]; more than 10 µM in test [19].
Regarding `COc1cc(C(=O)/C=C/c2ccc(OCC#N)cc2)cc(OC)c1OC`, the TGI in test [2] is 58.6 µM; in test [20], 55.4 µM; in test [3] it was 51.8 µM; in test [4] it was 35.9 µM; in [5], more than 100 µM; in [6] it was 25.9 µM. For the same compound, the TGI in test [7] is 31.4 µM; in [8] it was 33.2 µM; in test [9] it was 35.9 µM; in [10], 36.5 µM; in [11], more than 100 µM; in [12], more than 100 µM. For the same compound, the TGI in test [13] is more than 100 µM; in [14] it was 65.1 µM; in test [15], more than 100 µM; in test [16], 38 µM; in test [18], 69.6 µM; in test [19], 86.9 µM.
Regarding `CCCc1cc(=O)oc2c3c(c4c(c12)OC(C)(C)CC4)O[C@@H](C)[C@H](C)[C@H]3O`, the TGI in [1] amounted to 8.74 µM; in test [2], 33.4 µM; in test [5] it was 16.4 µM; in test [6], 20.3 µM; in test [7], 19 µM; in test [8] it was 38.2 µM. Besides, the TGI in test [9] is 26.5 µM; in [10], 23.2 µM; in test [11] it was 32.6 µM; in test [12], 37.5 µM; in test [13], 28.5 µM; in test [14], 17.8 µM. The TGI in test [15] stood at 32.7 µM; in [16], 15.5 µM; in test [17], 11.1 µM; in test [18] it was 49.7 µM; in [19], 7.17 µM.
On to `OCCOCCN1CCN(CCCN2c3ccccc3Sc3ccc(C(F)(F)F)cc32)CC1`, for which the TGI turned out to be 17.8 µM in test [1]; 33.2 µM in test [2]; 31.8 µM in test [3]; 28.2 µM in test [4]; 26.1 µM in test [5]; 13.8 µM in test [6]. For the same compound, the TGI in test [7] turned out to be 20.6 µM; in [8], 25.9 µM; in test [9], 27.8 µM; in test [10], 2.48 µM; in test [11], 33.7 µM; in test [12], 38.9 µM. The TGI was found to be 25.8 µM in test [13]; 1.32 µM in test [14]; 22.2 µM in test [15]; 29.6 µM in test [16]; 24 µM in test [17]; 30.5 µM in test [18]. The TGI in test [19] was 10.3 µM.
On to `COC(=O)C1CC2CCC1(O[Si](C(C)C)(C(C)C)C(C)C)C(O)C2` (stereo unspecified), for which the TGI in [1] stood at 40.7 µM; in [2] it was 44.1 µM; in test [20] it was 26.6 µM; in test [3], 80.4 µM; in [4], 44.7 µM; in test [5] it was 57.4 µM. For the same compound, the TGI in test [6] is 61.7 µM; in test [7] it was 30.2 µM; in [10] it was 76.7 µM; in test [11] it was more than 100 µM; in test [12], 99.6 µM; in [13] it was 47.2 µM. Moreover, the TGI is more than 100 µM in [14]; 94 µM in [15]; 47.7 µM in test [16]; 38.9 µM in test [17]; more than 100 µM in [18]; 28.9 µM in test [19].
In the case of `O=c1[nH]nc(-c2ccccc2)n1Nc1ccccc1`, the TGI in test [1], in test [20], in test [3], in test [4], in test [5] and in test [6] was more than 100 µM each time. For the same compound, the TGI in [7], in test [8], in test [9], in test [10], in test [11] and in test [12] was more than 100 µM throughout. Further, the TGI in test [13], in test [14], in [15], in test [17], in test [18] and in [19] was more than 100 µM throughout.
